Assay results from US6703407B1, “Benzofuran compounds, compositions, and methods” (Eli Lilly and Company, priority 1994, dated 2004).

How the values were obtained:
Type in all cases: in vivo, Sprague Dawley rats
ovariectomized rats [1] = experiment: Serum cholesterol in ovariectomized rat post-menopausal model (4-day dosing); conditions: oral daily for 4 days
Experimental: (§1) In the examples illustrating the methods, a post-menopausal model was used in which effects of different treatments upon circulating lipids were determined.
(§2) Seventy-five day old female Sprague Dawley rats (weight range of 200 to 225 g) were obtained from Charles River Laboratories (Portage, Mich.). The animals were either bilaterally ovariectomized (OVX) or exposed to a Sham surgical procedure at Charles River Laboratories, and then shipped after one week. Upon arrival, they were housed in metal hanging cages in groups of 3 or 4 per cage and had ad libitum access to food (calcium content approximately 0.5%) and water for one week. Room temperature was maintained at 22.20±1.7° C. with a minimum relative humidity of 40%. The photoperiod in the room was 12 hours light and 12 hours dark.
(§3) Dosing Regimen Tissue Collection. After a one week acclimation period (therefore, two weeks post-OVX) daily dosing with test compound was initiated. 17α-ethynyl estradiol or the test compound were given orally, unless otherwise stated, as a suspension in 1% carboxymethylcellulose or dissolved in 20% cyclodextrin. Animals were dosed daily for 4 days. Following the dosing regimen, animals were weighed and anesthetized with a ketamine: Xylazine (2:1, V:V) mixture and a blood sample was collected by cardiac puncture. The animals were then sacrificed by asphyxiation with CO2, the uterus was removed through a midline incision, and a wet uterine weight was determined.
Cholesterol Analysis. Blood samples were allowed to clot at room temperature for 2 hours, and serum was obtained following centrifugation for 10 minutes at 3000 rpm. Serum cholesterol was determined using a Boehringer Mannheim Diagnostics high performance cholesterol assay. Briefly the cholesterol was oxidized to cholest-4-en-3-one and hydrogen peroxide. The hydrogen peroxide was then reacted with phenol and 4-aminophenazone in the presence of peroxidase to produce a p-quinone imine dye, which was read spectrophotemetrically at 500 nm. Cholesterol concentration was then calculated against a standard curve. The entire assay was automated using a Biomek Automated Workstation.

ovariectomized rats [2] = experiment: Uterine weight in ovariectomized rat post-menopausal model (4-day dosing); conditions: for Uterine Weight (% increase vs. OVX): OVX rats, oral daily for 4 days
Experimental: as §1, §2, §3

[3] = system: Uterine Eosinophil Peroxidase (EPO); experiment: Uterine Eosinophil Peroxidase (EPO) Assay; conditions: for Uterine EPO (V. max): OVX rats, oral daily for 4 days
Description: as §2, §3
Uterine Eosinophil Peroxidase (EPO) Assay. Uteri were kept at 4° C. until time of enzymatic analysis. The uteri were then homogenized in 50 volumes of 50 mM Tris buffer (pH−8.0) containing 0.005% Triton X-100. Upon addition of 0.01% hydrogen peroxide and 10 mM o-phenylenediamine (final concentrations) in Tris buffer, increase in absorbance was monitored for one minute at 450 nm. The presence of eosonophils in the uterus is an indication of estrogenic activity of a compound. The maximal velocity of a 15 second interval was determined over the initial, linear portion of the reaction curve.

Structure (SMILES) | Serum Cholesterol (% decrease vs. OVX) (ovariectomized rats [1]; dose 0.1 mg/kg) | Uterine Weight (% increase vs. OVX) (ovariectomized rats [2]; dose 0.1 mg/kg) | uterine weight vs. ovariectomized test animals (in words) (ovariectomized rats [2]; orally administered at 0.1 mg/Kg/day) | Uterine EPO (V. max) ([3]; dose 0.1 mg/kg) | eosinophil infiltration into the uterus (number of eosinophils in the stromal layer, in words) ([3]; ovariectomized rats) | Serum Cholesterol (% decrease vs. OVX) (ovariectomized rats [1]; dose 1.0 mg/kg) | Serum Cholesterol (% decrease vs. OVX) (ovariectomized rats [1]; dose 10.0 mg/kg) | Uterine Weight (% increase vs. OVX) (ovariectomized rats [2]; dose 1.0 mg/kg) | Uterine Weight (% increase vs. OVX) (ovariectomized rats [2]; dose 10.0 mg/kg) | Uterine EPO (V. max) ([3]; dose 1.0 mg/kg) | Uterine EPO (V. max) ([3]; dose 10.0 mg/kg)
C#C[C@]1(O)CC[C@H]2[C@@H]3CCc4cc(O)ccc4[C@H]3CC[C@@]21C [EE2, 17α-ethynyl estradiol, reference compound] | 92.6 | 172.8 | substantially greater than the uterine weight of ovariectomized test animals | 201.9 | substantial, expected increase in eosinophil infiltration |  |  |  |  |  | 
Cl.Oc1ccc(-c2oc3cc(O)ccc3c2Cc2ccc(OCCN3CCCCC3)cc2)cc1 [Ex-3, [2-(4-Hydroxyphenyl)-6-hydroxybenzofuran-3-yl][4-[2-(1-piperidinyl)ethoxy]phenyl]methane Hydrochloride] | 38.9 | 8.6 |  | 4.7 |  | 53.0 | 73.3 | 26.3 | 30.1 | 5.8 | 11.3
